Tested on: 3rd instar Aedes aegypti
Assay: Laboratory bioassay in larval trays, larvicide surface film, Aedes aegypti
Assay type: in vivo
Details: components of Sample 42 tested neat, rate 663 μL, 21° C.
Procedure: Laboratory Bioassay Method. All larvae were reared on a diet of ground TETRAMIN® fish food (Tetra, Blacksburg, Va.) in an insectary maintained at 30° C. and 45% relative humidity (RH). Mainly third instars of Aedes aegypti were used for the laboratory container experiments. Anopheles quadrimaculatus and Culex quinquefasciatus were also tested where indicated.
Laboratory bioassays were conducted in […] plastic larval trays (laboratory containers). Each tray was filled with 27 liters of de-chlorinated water and received 50 healthy third instar larvae. The temperature of the water during most of the studies was 21° C. Additional testing was done at a water temperature of 15.6° C. and 28° C. Treatments were applied at a rate of 3 gal/acre or 663 μL/tray with an Eppendorf pipette. During the experimental period larvae were fed ground TETRAMIN® fish food (Tetra, Blacksburg, Va.) that was blended with water before introduction into the water of the larval tray to prevent flotation and thus interference with the surface film being tested.
Trays were scored for mortality at 1, 2, 4, 24, 48, and 72 hours following treatment introduction. At each time period the numbers of live and dead larvae were counted. […] Each treatment in the study was replicated three times using separate trays for each replication. A 95% mortality rate was considered acceptable for a commercial product.

ethoxylated tridecyl alcohol
% MORTALITY 24 HAT (24 HAT): 17% | % MORTALITY 48 HAT (48 HAT): 20% | % MORTALITY 72 HAT (72 HAT): 25%
